In one assay the target is Bcl-2 (Homo sapiens, UniProt P10415). Description: Ki determination for Bcl-2 (BCL-2 family binding spectrum). The settings on record: read-out: Ki BCL-2. In a few lines:
(§1)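 Competitive fluorescence polarization: compounds (1 nM–1 mM) with 25 nM fluoresceinated peptidomimetic macrocycle and 50 nM protein in 140 mM NaCl, 50 mM Tris-HCl pH 7.4, 30 min at room temperature. Constants from nonlinear regression.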

For the next assay, the target named is Mcl-1 (Homo sapiens, UniProt Q07820). Description: Ki determination for Mcl-1 (BCL-2 family binding spectrum). The settings on record: read-out: Ki MCL-1. In a few lines:
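Competitive fluorescence polarization assay in which compounds displace a fluoresceinated peptidomimetic macrocycle tracer from Mcl-1. Affinity constants were obtained by nonlinear regression.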

The next assay addresses Bcl-xL (Homo sapiens, UniProt Q07817). Description: Ki determination for Bcl-xL (BCL-2 family binding spectrum). The settings on record: read-out: Ki BCL-XL. An outline of the steps:
as §1

The structures appear in SMILES notation. Positions of bridges follow the written chain, without caps; N, C: chain ends. Non-standard residues stand in square brackets, D forms with d. Residues, ends and D or L forms follow the SMILES beside them. R8 = C=CCCCCCC[C@@](C)(N)C(=O)O; Cit = NC(=O)NCCC[C@H](N)C(=O)O; S5 = C=CCCC[C@](C)(N)C(=O)O Where only a bound is given, the exact number is not on record here.

Bcl-2, sequence (P10415 whole entry, species assumed): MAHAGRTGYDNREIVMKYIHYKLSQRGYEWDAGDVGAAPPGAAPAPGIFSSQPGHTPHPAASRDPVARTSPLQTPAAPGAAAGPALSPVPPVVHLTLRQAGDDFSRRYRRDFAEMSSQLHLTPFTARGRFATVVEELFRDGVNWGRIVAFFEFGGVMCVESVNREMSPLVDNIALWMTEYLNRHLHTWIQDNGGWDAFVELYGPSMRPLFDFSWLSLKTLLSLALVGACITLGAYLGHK
Bcl-xL, sequence (Q07817 whole entry, species assumed): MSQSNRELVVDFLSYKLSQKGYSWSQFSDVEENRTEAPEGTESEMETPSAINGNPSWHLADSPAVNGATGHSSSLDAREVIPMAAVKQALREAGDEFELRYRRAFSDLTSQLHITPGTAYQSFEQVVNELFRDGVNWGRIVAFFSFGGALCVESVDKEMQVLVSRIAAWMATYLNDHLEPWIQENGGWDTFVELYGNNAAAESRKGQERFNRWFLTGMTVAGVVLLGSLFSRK
Mcl-1, sequence (Q07820 whole entry, species assumed): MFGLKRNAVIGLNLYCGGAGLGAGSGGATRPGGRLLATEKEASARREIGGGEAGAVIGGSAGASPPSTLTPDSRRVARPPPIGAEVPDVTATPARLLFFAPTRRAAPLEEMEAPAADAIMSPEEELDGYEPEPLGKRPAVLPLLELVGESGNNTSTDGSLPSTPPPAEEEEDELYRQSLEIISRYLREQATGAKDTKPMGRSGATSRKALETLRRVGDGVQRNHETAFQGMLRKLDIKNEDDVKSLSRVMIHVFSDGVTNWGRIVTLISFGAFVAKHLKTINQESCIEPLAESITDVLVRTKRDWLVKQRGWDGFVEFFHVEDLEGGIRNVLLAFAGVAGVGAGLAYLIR

One may read the Ki as a measure of affinity in units of concentration, obtained from inhibition or displacement. For the compound `CC[C@H](C)[C@H](NC(C)=O)C(=O)N[C@@H](Cc1c[nH]c2ccccc12)C(=O)N[C@H](C(=O)N[C@@H](C)C(=O)N[C@@H](CCC(N)=O)C(=O)N[C@@H](C)C(=O)N[C@@H](CC(C)C)C(=O)N[C@@H](CCCNC(=N)N)C(=O)N[C@]1(C)CCCCCCC=CCCC[C@@](C)(C(=O)N[C@@H](Cc2ccc(O)cc2)C(=O)N[C@@H](Cc2ccc(O)cc2)C(=O)N[C@@H](C)C(N)=O)NC(=O)[C@H](CC(N)=O)NC(=O)[C@H](Cc2ccccc2)NC(=O)[C@H](CCC(N)=O)NC(=O)[C@H](CC(=O)O)NC(=O)CNC(=O)[C@H]([C@@H](C)CC)NC1=O)[C@@H](C)CC` [compound 1650] (Ac-IWIAQALR[R8]IGDQFN[S5]YYA-NH2; staple 9-16), the Ki at Bcl-2 was determined as 67 nM; at Mcl-1 it was 5.2 nM; at Bcl-xL, 12 nM.

As to `CC[C@H](C)[C@H](NC(C)=O)C(=O)N[C@@H](Cc1c[nH]c2ccccc12)C(=O)N[C@H](C(=O)N[C@@H](C)C(=O)N[C@@H](C)C(=O)N[C@@H](C)C(=O)N[C@@H](CC(C)C)C(=O)N[C@@H](CCCNC(=N)N)C(=O)N[C@]1(C)CCCCCCC=CCCC[C@@](C)(C(=O)N[C@@H](Cc2ccc(O)cc2)C(=O)N[C@@H](Cc2ccc(O)cc2)C(=O)N[C@@H](C)C(N)=O)NC(=O)[C@H](CC(N)=O)NC(=O)[C@H](Cc2ccccc2)NC(=O)[C@H](CCC(=O)O)NC(=O)[C@H](CC(=O)O)NC(=O)CNC(=O)[C@H]([C@@H](C)CC)NC1=O)[C@@H](C)CC` [compound 1651] (Ac-IWIAAALR[R8]IGDEFN[S5]YYA-NH2; staple 9-16), the Ki on Bcl-2 stood at 6 nM; on Mcl-1, 1 nM; on Bcl-xL it was 1 nM.

In the case of `CC[C@H](C)[C@H](NC(C)=O)C(=O)N[C@@H](Cc1c[nH]c2ccccc12)C(=O)N[C@H](C(=O)N[C@@H](C)C(=O)N[C@@H](C)C(=O)N[C@@H](C)C(=O)N[C@@H](CC(C)C)C(=O)N[C@@H](CCCNC(=N)N)C(=O)N[C@]1(C)CCCCCCC=CCCC[C@@](C)(C(=O)N[C@@H](Cc2ccc(O)cc2)C(=O)N[C@@H](Cc2ccc(O)cc2)C(=O)N[C@@H](C)C(N)=O)NC(=O)[C@H](CC(N)=O)NC(=O)[C@H](Cc2ccccc2)NC(=O)[C@H](CCC(N)=O)NC(=O)[C@H](CC(=O)O)NC(=O)CNC(=O)[C@H]([C@@H](C)CC)NC1=O)[C@@H](C)CC` [compound 1652] (Ac-IWIAAALR[R8]IGDQFN[S5]YYA-NH2; staple 9-16), the figures for the Ki at Bcl-2, at Mcl-1 and on Bcl-xL were 22 nM, 6 nM and 4 nM, respectively.

For `CC[C@H](C)[C@H](NC(C)=O)C(=O)N[C@@H](Cc1c[nH]c2ccccc12)C(=O)N[C@H](C(=O)N[C@@H](C)C(=O)N[C@@H](CCC(N)=O)C(=O)N[C@@H](C)C(=O)N[C@@H](CC(C)C)C(=O)N[C@@H](CCCNC(N)=O)C(=O)N[C@]1(C)CCCCCCC=CCCC[C@@](C)(C(=O)N[C@@H](Cc2ccc(O)cc2)C(=O)N[C@@H](Cc2ccc(O)cc2)C(=O)N[C@@H](C)C(N)=O)NC(=O)[C@H](CC(N)=O)NC(=O)[C@H](Cc2ccccc2)NC(=O)[C@H](CCC(N)=O)NC(=O)[C@H](CC(=O)O)NC(=O)CNC(=O)[C@H]([C@@H](C)CC)NC1=O)[C@@H](C)CC` [compound 1656] (Ac-IWIAQAL[Cit][R8]IGDQFN[S5]YYA-NH2; staple 9-16), the inhibition constant (Ki) worked out at 88.2 nM on Bcl-2, 1.7 nM on Mcl-1 and 28.8 nM at Bcl-xL.

With `CC[C@H](C)[C@H](NC(C)=O)C(=O)N[C@@H](Cc1c[nH]c2ccccc12)C(=O)N[C@H](C(=O)N[C@@H](C)C(=O)N[C@@H](CCC(N)=O)C(=O)N[C@@H](C)C(=O)N[C@@H](CC(C)C)C(=O)N[C@@H](Cc1c[nH]cn1)C(=O)N[C@]1(C)CCCCCCC=CCCC[C@@](C)(C(=O)N[C@@H](Cc2ccc(O)cc2)C(=O)N[C@@H](Cc2ccc(O)cc2)C(=O)N[C@@H](C)C(N)=O)NC(=O)[C@H](CC(N)=O)NC(=O)[C@H](Cc2ccccc2)NC(=O)[C@H](C)NC(=O)[C@H](CC(=O)O)NC(=O)CNC(=O)[C@H]([C@@H](C)CC)NC1=O)[C@@H](C)CC` [compound 1657] (Ac-IWIAQALH[R8]IGDAFN[S5]YYA-NH2; staple 9-16), the Ki on Bcl-2, at Mcl-1 and on Bcl-xL was > 1000 nM in each case.

Regarding `CC[C@H](C)[C@H](NC(C)=O)C(=O)N[C@@H](Cc1c[nH]c2ccccc12)C(=O)N[C@H](C(=O)N[C@@H](C)C(=O)N[C@@H](CCC(N)=O)C(=O)N[C@@H](C)C(=O)N[C@@H](CC(C)C)C(=O)N[C@@H](Cc1c[nH]cn1)C(=O)N[C@]1(C)CCCCCCC=CCCC[C@@](C)(C(=O)N[C@@H](Cc2ccc(O)cc2)C(=O)N[C@@H](Cc2ccc(O)cc2)C(=O)N[C@@H](C)C(N)=O)NC(=O)[C@H](CC(N)=O)NC(=O)[C@H](Cc2ccccc2)NC(=O)[C@H](CCC(N)=O)NC(=O)[C@H](CC(=O)O)NC(=O)CNC(=O)[C@H]([C@@H](C)CC)NC1=O)[C@@H](C)CC` [compound 1658] (Ac-IWIAQALH[R8]IGDQFN[S5]YYA-NH2; staple 9-16), the Ki at Bcl-2, at Mcl-1 and on Bcl-xL was > 1000 nM in each case.

Regarding `CC[C@H](C)[C@H](NC(C)=O)C(=O)N[C@@H](Cc1c[nH]c2ccccc12)C(=O)N[C@H](C(=O)N[C@@H](C)C(=O)N[C@@H](CCC(N)=O)C(=O)N[C@@H](C)C(=O)N[C@@H](CC(C)C)C(=O)N[C@@H](CCCNC(=N)N)C(=O)N[C@]1(C)CCCCCCC=CCCC[C@@](C)(C(=O)N[C@@H](Cc2ccc(O)cc2)C(=O)N[C@@H](Cc2ccc(O)cc2)C(=O)N[C@@H](C)C(N)=O)NC(=O)[C@H](CC(N)=O)NC(=O)[C@H](C)NC(=O)[C@H](C)NC(=O)[C@H](CC(=O)O)NC(=O)CNC(=O)[C@H]([C@@H](C)CC)NC1=O)[C@@H](C)CC` [compound 1661] (Ac-IWIAQALR[R8]IGDAAN[S5]YYA-NH2; staple 9-16), the values for the Ki on Bcl-2, at Mcl-1 and at Bcl-xL were 140 nM, 7.5 nM and 402 nM, respectively.

For the compound `CC[C@H](C)[C@H](NC(C)=O)C(=O)N[C@@H](Cc1c[nH]c2ccccc12)C(=O)N[C@H](C(=O)N[C@@H](C)C(=O)N[C@@H](CCC(N)=O)C(=O)N[C@@H](C)C(=O)N[C@@H](CC(C)C)C(=O)N[C@@H](CCCNC(=N)N)C(=O)N[C@]1(C)CCCCCCC=CCCC[C@@](C)(C(=O)N[C@@H](Cc2ccc(O)cc2)C(=O)N[C@@H](Cc2ccc(O)cc2)C(=O)N[C@@H](C)C(N)=O)NC(=O)[C@H](CC(N)=O)NC(=O)[C@H](Cc2ccccc2)NC(=O)[C@H](CCC(N)=O)NC(=O)[C@H](CC(=O)O)NC(=O)[C@H](C)NC(=O)[C@H]([C@@H](C)CC)NC1=O)[C@@H](C)CC` [compound 1666] (Ac-IWIAQALR[R8]IADQFN[S5]YYA-NH2; staple 9-16), the Ki was 25.6 nM on Bcl-2, 116 nM on Mcl-1 and 7.7 nM at Bcl-xL.

As for `CC[C@H](C)[C@H](NC(C)=O)C(=O)N[C@@H](Cc1c[nH]c2ccccc12)C(=O)N[C@H](C(=O)N[C@@H](C)C(=O)N[C@@H](CCC(N)=O)C(=O)N[C@@H](C)C(=O)N[C@@H](CC(C)C)C(=O)N[C@@H](CCCNC(N)=O)C(=O)N[C@]1(C)CCCCCCC=CCCC[C@@](C)(C(=O)N[C@@H](Cc2ccc(O)cc2)C(=O)N[C@@H](Cc2ccc(O)cc2)C(=O)N[C@@H](C)C(N)=O)NC(=O)[C@H](CC(N)=O)NC(=O)[C@H](C(C)C)NC(=O)[C@H](C)NC(=O)[C@H](CC(=O)O)NC(=O)CNC(=O)[C@H]([C@@H](C)CC)NC1=O)[C@@H](C)CC` [compound 1774] (Ac-IWIAQAL[Cit][R8]IGDAVN[S5]YYA-NH2; staple 9-16), the Ki at Bcl-2 and on Bcl-xL was > 1000 nM each time.

(Values after patent publication US20190185518A9, “WARHEAD-CONTAINING PEPTIDOMIMETIC MACROCYCLES AS MODULATORS OF BFL-1” (AILERON Therapeutics, Inc., priority 2017, published 2019).)
